Holding throughout (assay type): cell-based
In assay [1] the target is T1, ETV6-TRKC-G623R (Homo sapiens, UniProt Q16288, G623R, cells depend on it).
T1 construct: fused on or other part: P41212 (Transcription factor ETV6)
The experiment in a line: Engineered Ba/F3 cell proliferation inhibition (MTS), ETV6-TRKC-G623R. Conditions: 72 h, read-out: ETV6-TRKC-G623R IC50. An excerpt:
(§1) MTS testing kit was purchased from Promega (Madison, Wis., USA). The RPMI-1640, Fetal bovine serum and Penicillin-Streptomycin were purchased from Gibco (San Francisco, Calif., USA). Dimethyl sulfoxide (DMSO) and Puromycin were purchased from Sigma (St. Louis, Mo., USA). Mouse interleukin-3 (IL-3) was purchased from Cell signaling Technology (Boston, Mass., USA).
(§2) To investigate whether a compound is able to inhibit the activity of TRK fusion mutation in cells, a mechanism-based assay using engineered Ba/F3 cell lines stably overexpressing oncogenic rearrangement or gene mutation of TRK (TPM3-TRKA, TPM3-TRKA-G595R, AFAP1-TRKB, ETV6-TRKC and ETV6-TRKC-G623R) were developed. In this assay, inhibition of TRK fusion mutation was detected by the cell proliferation inhibition of engineered Ba/F3 cells. Engineered Ba/F3 cells were cultured in culture flasks to 40-80% confluence in RPMI-1640 supplemented with 10% fetal bovine serum, 2 ug/mL puromycin. Cells were collected and plated onto 96-well plates at desired cell density (Ba/F3-TPM3-TRKA: 3×10^4/mL, Ba/F3-TPM3-TRKA-G595R: 1×10^5/mL, Ba/F3-AFAP1-TRKB: 1×10^5/mL, Ba/F3-ETV6-TRKC: 3×10^4/mL, Ba/F3-ETV6-TRKC-G623R: 3×10^4/mL). Plates were incubated at 37° C., with 5% CO2 for 4 h. […] The absorbance was measured at 490 nm and 650 nm (reference wavelength). IC50 was calculated using GraphPad Prism 5.0 software.

Assay [2] concerns the target T2, ETV6-TRKC (Homo sapiens, UniProt Q16288).
T2 construct: ETV6 (fusion partner, N-terminal part); expressed in transfected cells; the other entry of the earlier key: ETV6 (P41212, Transcription factor ETV6)
The experiment in a line: Engineered Ba/F3 cell proliferation inhibition (MTS), ETV6-TRKC. To be noted: Ba/F3-ETV6-TRKC cells, 72 h.
Source text: as §1
(§3) To investigate whether a compound is able to inhibit the activity of TRK fusion mutation in cells, a mechanism-based assay using engineered Ba/F3 cell lines stably overexpressing oncogenic rearrangement or gene mutation of TRK (TPM3-TRKA, TPM3-TRKA-G595R, AFAP1-TRKB, ETV6-TRKC and ETV6-TRKC-G623R) were developed. In this assay, inhibition of TRK fusion mutation was detected by the cell proliferation inhibition of engineered Ba/F3 cells. Engineered Ba/F3 cells were cultured in culture flasks to 40-80% confluence in RPMI-1640 supplemented with 10% fetal bovine serum, 2 ug/mL puromycin. Cells were collected and plated onto 96-well plates at desired cell density (Ba/F3-TPM3-TRKA: 3×10^4/mL, Ba/F3-TPM3-TRKA-G595R: 1×10^5/mL, Ba/F3-AFAP1-TRKB: 1×10^5/mL, Ba/F3-ETV6-TRKC: 3×10^4/mL, Ba/F3-ETV6-TRKC-G623R: 3×10^4/mL). Plates were incubated at 37° C., with 5% CO2 for 4 h. Compounds were then added to the plates with the final compound concentrations of 10000, 3333, 1111, […], 123, 41.2, 13.7, 4.6 and 1.5 nM. Plates were incubated at 37° C., with 5% CO2 for 72 h. A mixture of 20 μl MTS/100 μl medium were added to each well and the plates were incubated at 37° C., with 5% CO2 for exactly 2 h. The reaction was stopped by adding 25 μl of 10% SDS per well. The absorbance was measured at 490 nm and 650 nm (reference wavelength). IC50 was calculated using GraphPad Prism 5.0 software.

Assay [3] relates to KM12 cells. The experiment in a line: KM12 cells proliferation inhibition (MTS), mechanism-based TRK assay. Conditions: Homo sapiens, 72 h.
Source text: as §1
To investigate whether a compound is able to inhibit the activity of TRK in cells, a mechanism-based assay using KM12 cells was developed. In this assay, inhibition of TRK was detected by the inhibition of KM12 cells proliferation. KM12 cells were cultured in culture flasks to 40-80% confluence in RPMI-1640 plus 10% fetal bovine serum. Cells were collected and plated onto 96-well plates at 1000 cells/well. Plates were incubated at 37° C., with 5% CO2 for 4 h. Compounds were added to the plates, the final compound concentrations were […], 123.5, 41.2, 13.7, 4.6 and 1.5 nM. Place plates at 37° C., with 5% CO2 for KM12 cells 72 h. 20 μl MTS/100 μl medium mixture solution were added to each well and incubate the plates for exactly 2 h. Stop the reaction by adding 25 μl 10% SDS per well. Measure absorbance at 490 nm and 650 nm (reference wavelength). IC50 was calculated using GraphPad Prism 5.0.

Assay [4] deals with T3, TPM3-TRKA-G595R (Homo sapiens, UniProt P04629, G595R).
T3 construct: TPM3 (fusion partner, N-terminal part); expressed in transfected cells; the other entry of the earlier key: TPM3 (P06753, Tropomyosin alpha-3 chain)
T3 sequence (P04629 510-796 G595R limits assumed): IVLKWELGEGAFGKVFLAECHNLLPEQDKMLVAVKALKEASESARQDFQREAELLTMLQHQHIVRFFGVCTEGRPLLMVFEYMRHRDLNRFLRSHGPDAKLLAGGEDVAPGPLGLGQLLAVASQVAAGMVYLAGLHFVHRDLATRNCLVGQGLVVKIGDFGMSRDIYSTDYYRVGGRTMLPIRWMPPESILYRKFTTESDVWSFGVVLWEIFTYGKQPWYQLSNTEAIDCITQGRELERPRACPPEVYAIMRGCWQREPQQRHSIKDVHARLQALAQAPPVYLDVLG
The experiment in a line: Engineered Ba/F3 cell proliferation inhibition (MTS), TPM3-TRKA-G595R. To be noted: Ba/F3-TPM3-TRKA-G595R cells, 72 h.
Source text: as §1, §3

The target of assay [5] is T4, TPM3-TRKA (Homo sapiens, UniProt P04629).
T4 construct: TPM3 (fusion partner, N-terminal part); expressed in transfected cells; the other entry of the earlier key: TPM3 (P06753, Tropomyosin alpha-3 chain)
T4 sequence (P04629 510-796 limits assumed): as the sequence (P04629 510-796 G595R limits assumed) above, with R86G counted along it
The experiment in a line: Engineered Ba/F3 cell proliferation inhibition (MTS), TPM3-TRKA. To be noted: Ba/F3-TPM3-TRKA cells, 72 h.
Source text: as §1, §3

Assay [6] concerns the target T5, AFAP1-TRKB (Homo sapiens, UniProt Q16620).
T5 construct: AFAP1 (fusion partner, N-terminal part); expressed in transfected cells; the other entry of the earlier key: AFAP1 (Q8N556, Actin filament-associated protein 1)
The experiment in a line: Engineered Ba/F3 cell proliferation inhibition (MTS), AFAP1-TRKB. Conditions: Ba/F3-AFAP1-TRKB cells, 72 h.
Source text: as §1, §2

T2 sequence (Q16288 530-825 isoform Q16288-3 limits assumed): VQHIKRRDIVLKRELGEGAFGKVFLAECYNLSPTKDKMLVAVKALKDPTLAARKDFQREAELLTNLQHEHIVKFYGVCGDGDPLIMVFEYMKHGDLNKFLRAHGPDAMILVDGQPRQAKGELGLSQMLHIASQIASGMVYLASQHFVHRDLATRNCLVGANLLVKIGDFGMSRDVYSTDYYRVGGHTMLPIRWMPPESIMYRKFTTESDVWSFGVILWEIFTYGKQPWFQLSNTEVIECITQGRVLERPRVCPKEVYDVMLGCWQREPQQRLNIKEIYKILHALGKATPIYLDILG
T1 sequence (Q16288 whole entry G623R, the tested form may be a part): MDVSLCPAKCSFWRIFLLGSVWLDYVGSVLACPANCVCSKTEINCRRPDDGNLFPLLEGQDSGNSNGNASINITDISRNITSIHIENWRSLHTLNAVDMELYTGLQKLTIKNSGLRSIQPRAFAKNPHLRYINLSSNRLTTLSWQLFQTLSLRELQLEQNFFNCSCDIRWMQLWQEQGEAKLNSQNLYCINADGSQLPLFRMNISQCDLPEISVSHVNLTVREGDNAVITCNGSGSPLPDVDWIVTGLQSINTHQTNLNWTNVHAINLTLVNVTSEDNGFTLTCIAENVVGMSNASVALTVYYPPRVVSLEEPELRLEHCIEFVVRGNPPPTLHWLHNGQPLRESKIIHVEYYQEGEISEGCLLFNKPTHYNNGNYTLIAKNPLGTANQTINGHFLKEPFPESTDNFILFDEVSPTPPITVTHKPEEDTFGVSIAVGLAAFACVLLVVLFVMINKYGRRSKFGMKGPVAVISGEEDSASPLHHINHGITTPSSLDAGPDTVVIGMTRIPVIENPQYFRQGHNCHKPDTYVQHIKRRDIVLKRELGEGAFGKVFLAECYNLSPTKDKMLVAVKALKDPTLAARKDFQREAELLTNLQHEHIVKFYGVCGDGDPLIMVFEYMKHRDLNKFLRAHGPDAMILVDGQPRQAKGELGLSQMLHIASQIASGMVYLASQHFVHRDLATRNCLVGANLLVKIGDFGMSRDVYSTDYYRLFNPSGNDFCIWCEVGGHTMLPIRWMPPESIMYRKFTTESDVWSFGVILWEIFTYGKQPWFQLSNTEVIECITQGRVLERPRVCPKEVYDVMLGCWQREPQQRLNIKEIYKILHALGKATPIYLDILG
T5 sequence (Q16620 538-822 limits assumed): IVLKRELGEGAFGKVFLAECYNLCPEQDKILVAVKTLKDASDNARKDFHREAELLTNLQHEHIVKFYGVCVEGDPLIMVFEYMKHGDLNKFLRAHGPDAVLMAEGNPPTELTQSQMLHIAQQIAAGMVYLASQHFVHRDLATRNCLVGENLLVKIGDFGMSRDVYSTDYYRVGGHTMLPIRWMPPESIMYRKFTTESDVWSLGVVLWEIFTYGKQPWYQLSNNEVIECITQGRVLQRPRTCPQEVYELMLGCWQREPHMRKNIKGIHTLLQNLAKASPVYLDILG

For the molecule `CC(C)c1nnc(-c2cnn3ccc(N4CC[C@H]5C[C@]54c4cc(F)ccc4F)nc23)s1` [Example 26, 2-(5-((1R,5S)-1-(2,5-difluorophenyl)-2-azabicyclo [3.1.0]hexan-2-yl)pyrazolo[1,5-a]pyrimidin-3-yl)-5-isopropyl-1,3,4-thiadiazole], the GI50 in assay [1] worked out at 6 nM. The IC50 in assay [2] was determined as 1 nM; in assay [3] it was 4 nM; in assay [4] it was 15 nM; in assay [5], 2 nM.
For the molecule `O=C(Nc1cnn2ccc(N3CC[C@H]4C[C@]43c3cc(F)ccc3F)nc12)N1CC[C@H](O)C1` [Example 1, (S)—N-(5-((1R,5S)-1-(2,5-difluorophenyl)-2-azabicyclo[3.1.0]hexan-2-yl)pyrazolo[1,5-a]pyrimidin-3-yl)-3-hydroxypyrrolidine-1-carboxamide], the IC50 in assay [6] was 14 nM; in assay [2] it was 1 nM; in assay [3], 1 nM; in assay [5] it was 3 nM.
As to `CC(C)(C)c1nnc(-c2cnn3ccc(N4CC[C@H]5C[C@]54c4cc(F)ccc4F)nc23)s1` [Example 27, 2-(tert-butyl)-5-(5-((1R,5S)-1-(2,5-difluorophenyl)-2-azabicyclo[3.1.0]hexan-2-yl)pyrazolo[1,5-a]pyrimidin-3-yl)-1,3,4-thiadiazole], in assay [1], the GI50 was 20 nM. Moreover, the IC50 in assay [2] worked out at 11 nM; in assay [3], 11 nM; in assay [4], 21 nM; in assay [5], 2 nM.
For the molecule `O=C(Nc1cnn2ccc(N3CC[C@H]4C[C@]43c3cc(F)ccc3F)nc12)c1ccccn1` [Example 15, N-(5-((1R,5S)-1-(2,5-difluorophenyl)-2-azabicyclo [3.1.0]hexan-2-yl)pyrazolo[1,5-a]pyrimidin-3-yl) picolinamide], the IC50 in assay [2] stood at 1 nM; in assay [3] it was 1 nM; in assay [4] it was 18 nM; in assay [5], 1 nM.

By IC50 is commonly meant the midpoint of a concentration-inhibition curve. A higher IC50 goes with weaker potency in that assay.

Values taken from patent publication US11459332B2, “Substituted 2-azabicyclo[3.1.0]hexanes as TRK kinases inhibitors” (FOCHON BIOSCIENCES, LTD., priority 2018, dated 2022).
